Experimental data as given in ChEMBL document CHEMBL6087417, “The synthesis and antileukemic activity of 5-substituted thiazolyl urea derivatives” (Bioorg Med Chem Lett, 2025).

What was measured:
[1] = test system: THP-1; test: Antileukemic activity against human THP-1 cells assessed as inhibition of cell proliferation by MTS assay; type: functional, cell-based
[2] = test system: MV4-11; test: Antileukemic activity against human MV4-11 cells assessed as inhibition of cell proliferation by MTS assay; type: functional, cell-based
[3] = Cytotoxicity against PBMC (unknown origin) assessed as cell survival at 20 uM relative to control; type: toxicity, cell-based; details: read-out: Survival

Compound	IC50 [1] [nM]	IC50 [2] [nM]	viability at 20 µM [3] [%]
COc1ccc(Cc2cnc(NC(=O)N3CCCN(c4ccc(Cl)cc4)CC3)s2)cc1	270	310	
COc1cccc(Cc2cnc(NC(=O)N3CCN(c4ccc(Cl)cc4)CC3)s2)c1	210	130	
O=C(Nc1ncc(Cc2cccc(Br)c2)s1)N1CCN(c2cccc(F)n2)CC1	> 20000	> 20000	
COc1ccccc1Cc1cnc(NC(=O)N2CCN(c3ccc(Cl)cc3)CC2)s1	360	190	
O=C(Nc1ncc(Cc2cccc(O)c2)s1)N1CCN(c2ccc(Cl)cc2)CC1	110	140	
Cc1ccnc(N2CCN(C(=O)Nc3ncc(Cc4cccc(Br)c4)s3)CC2)c1	> 20000	5310	
COc1ccc(Cc2cnc(NC(=O)N3CCN(c4ccc(Cl)cc4)CC3)s2)cc1	29	98	91.7
O=C(Nc1ncc(Cc2cccc(Br)c2)s1)N1CCN(Cc2ccc(Cl)cc2)CC1	> 20000	> 20000	
O=C(Nc1ncc(Cc2cccc(Br)c2)s1)N1CCN(c2ccc(F)cc2)CC1	190	170	
O=C(Nc1ncc(Cc2cccc(Br)c2)s1)N1CCN(c2ccccc2Cl)CC1	1610	1320	
O=C(Nc1ncc(Cc2cccc(Br)c2)s1)N1CCN(c2cc(Cl)cc(Cl)c2)CC1	> 20000	> 20000	
Cc1cccc(N2CCN(C(=O)Nc3ncc(Cc4cccc(Br)c4)s3)CC2)n1	> 20000	> 20000	
CC1CCN(C(=O)Nc2ncc(Cc3cccc(Br)c3)s2)CC1	3240	2410	
O=C(Nc1ncc(Cc2cccc(Br)c2)s1)N1CCN(c2ccc(Cl)cc2)CC1	330	260	
O=C(Nc1ncc(Cc2ccc(Br)cc2)s1)N1CCN(c2ccc(Cl)cc2)CC1	370	550	
COCc1cccc(Cc2cnc(NC(=O)N3CCN(c4ccc(Cl)cc4)CC3)s2)c1	130	130	
Cc1ccc(N2CCN(C(=O)Nc3ncc(Cc4ccc(Br)cc4)s3)CC2)cc1	1780	1110	
O=C(Nc1ncc(Cc2cccc(Br)c2)s1)N1CCN(c2cc(C(F)(F)F)cc(C(F)(F)F)c2)CC1	> 20000	> 20000	
O=C(Nc1ncc(Cc2ccccc2C(F)(F)F)s1)N1CCN(c2ccc(Cl)cc2)CC1	> 20000	4990	
O=C(Nc1ncc(Cc2cccc(C(F)(F)F)c2)s1)N1CCN(c2ccc(Cl)cc2)CC1	370	300	
O=C(Nc1ncc(Cc2ccc(Br)cc2)s1)N1CCN(c2ccc(O)cc2)CC1	> 20000	> 20000	
O=C(Nc1ncc(Cc2cccc(Br)c2)s1)N1CCN(S(=O)(=O)c2ccc(Cl)cc2)CC1	> 20000	> 20000	
N#Cc1ccc(N2CCN(C(=O)Nc3ncc(Cc4cccc(Br)c4)s3)CC2)cc1	660	890	
O=C(Nc1ncc(Cc2cccc(Br)c2)s1)N1CCN(c2cccc(Cl)n2)CC1	> 20000	16800	
Cc1ccc(N2CCN(C(=O)Nc3ncc(Cc4cccc(Br)c4)s3)CC2)cc1	3480	2880	
CC1CN(C(=O)Nc2ncc(Cc3cccc(Br)c3)s2)CCN1c1ccc(Cl)cc1 (configuration not stated)	> 20000	14800	
O=C(Nc1ncc(Cc2ccccc2Cl)s1)N1CCN(c2ccc(Cl)cc2)CC1	1110	160	

Compound	IC50 [1] [nM]	IC50 [2] [nM]	viability at 20 µM [3] [%]
CC(C)Oc1cccc(Cc2cnc(NC(=O)N3CCN(c4ccc(Cl)cc4)CC3)s2)c1	> 20000	> 20000	
O=C(Nc1ncc(Cc2cccc(Br)c2)s1)N1C2CC[C@@H]1CN(c1ccc(Cl)cc1)C2	> 20000	9730	
COc1ccc(Cc2cnc(NC(=O)N3C4CC[C@@H]3CN(c3ccc(Cl)cc3)C4)s2)cc1	290	310	
O=C(Nc1ncc(Cc2cccc(Br)c2)s1)N1CCCN(c2ccc(Cl)cc2)CC1	> 20000	> 20000	
Cc1cccc(Cc2cnc(NC(=O)N3CCN(c4ccc(Cl)cc4)CC3)s2)c1	> 20000	210	
CC1CCN(C(=O)Nc2ncc(Cc3ccc(Br)cc3)s2)CC1	1390	1490	
O=C(Nc1ncc(Cc2cccc(Br)c2)s1)N1CCN(c2ccc(Cl)cn2)CC1	680	620	
O=C(Nc1ncc(Cc2ccc(Br)cc2)s1)N1CCN(c2ccccc2)CC1	4050	1850	
O=C(Nc1ncc(Cc2cccc(Br)c2)s1)N1CCN(c2ccc(C(F)(F)F)cc2)CC1	> 20000	4500	
O=C(Nc1ncc(Cc2cccc(Br)c2)s1)N1CCN(c2cccc(C(F)(F)F)n2)CC1	> 20000	> 20000	
O=C(Nc1ncc(Cc2ccccc2Br)s1)N1CCN(c2ccc(Cl)cc2)CC1	1300	1120	
O=C(Nc1ncc(Cc2cccc(OCCCN3CCOCC3)c2)s1)N1CCN(c2ccc(Cl)cc2)CC1	> 20000	> 20000	
O=C(Nc1ncc(Cc2cccc(Br)c2)s1)N1CCN(c2cccc(Cl)c2)CC1	> 20000	9980	
O=C(Nc1ncc(Cc2cccc(Br)c2)s1)N1CCN(c2ccccc2)CC1	4080	1310	
O=C(Nc1ncc(Cc2cccc(Br)c2)s1)N1CC2CC1CN2c1ccc(Cl)cc1 (configuration not stated)	> 20000	11100	
Cc1ccc(N2CCN(C(=O)Nc3ncc(Cc4ccccc4Br)s3)CC2)cc1	9580	2800	
O=C(Nc1ncc(Cc2ccc(C(F)(F)F)cc2)s1)N1CCN(c2ccc(Cl)cc2)CC1	180	230	
CC1CCN(C(=O)Nc2ncc(Cc3ccccc3Br)s2)CC1	3840	1890	
O=C(Nc1ncc(Cc2ccccc2Br)s1)N1CCN(c2ccccc2)CC1	2410	1460	
CCOc1cccc(Cc2cnc(NC(=O)N3CCN(c4ccc(Cl)cc4)CC3)s2)c1	> 20000	> 20000	
O=C(Nc1ncc(Cc2cccc(Cl)c2)s1)N1CCN(c2ccc(Cl)cc2)CC1	200	390	
O=C(Nc1ncc(Cc2cccc(Br)c2)s1)N1CCN(c2ccc([N+](=O)[O-])cc2)CC1	> 20000	2050	
O=C(Nc1ncc(Cc2ccc(Cl)cc2)s1)N1CCN(c2ccc(Cl)cc2)CC1	170	210	
O=C(Nc1ncc(Cc2cccc(Br)c2)s1)N1CCN(c2cccc(Br)n2)CC1	> 20000	> 20000	
O=C(Nc1ncc(Cc2cccc(Br)c2)s1)N1CCN(C(=O)c2ccc(Cl)cc2)CC1	> 20000	> 20000	
Nc1ccn([C@@H]2O[C@H](CO)[C@@H](O)[C@@H]2O)c(=O)n1 [CYTARABINE]	460		
CCc1nc(C(N)=O)c(Nc2ccc(N3CCC(N4CCN(C)CC4)CC3)c(OC)c2)nc1NC1CCOCC1 [GILTERITINIB]		24	
